Experimental data taken from ChEMBL document CHEMBL1201862, “PubChem BioAssay data set” (2004).
Activity calls are given as the source filed them.

Assays:
[1] = molecular target: T1, Calpain-2 catalytic subunit (Sus scrofa, UniProt P43367); experiment: m-calpain protease blockers, concentration series – biochemical, fluorogenic peptide substrate, dose response (AID 1420); assay type: functional
T1 sequence (P43367 whole entry): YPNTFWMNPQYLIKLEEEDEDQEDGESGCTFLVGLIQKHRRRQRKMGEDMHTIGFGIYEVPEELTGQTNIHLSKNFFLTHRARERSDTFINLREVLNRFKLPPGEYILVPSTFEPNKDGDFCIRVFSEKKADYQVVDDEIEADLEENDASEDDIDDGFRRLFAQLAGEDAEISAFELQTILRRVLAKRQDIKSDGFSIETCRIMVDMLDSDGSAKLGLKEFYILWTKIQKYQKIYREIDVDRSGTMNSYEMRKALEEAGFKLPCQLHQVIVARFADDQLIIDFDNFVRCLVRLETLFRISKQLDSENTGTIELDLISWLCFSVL

cells = assay type: functional, cell-based; details: HEK-CNG
Galanin receptor type 3 = molecular target: T2, Galanin receptor type 3 (Homo sapiens, UniProt O60755); experiment: Fluorescence-based cell-based primary high throughput dose response assay to identify antagonists of the Galanin Receptor 3 (GalR3).; assay type: functional
T2 sequence (O60755 whole entry): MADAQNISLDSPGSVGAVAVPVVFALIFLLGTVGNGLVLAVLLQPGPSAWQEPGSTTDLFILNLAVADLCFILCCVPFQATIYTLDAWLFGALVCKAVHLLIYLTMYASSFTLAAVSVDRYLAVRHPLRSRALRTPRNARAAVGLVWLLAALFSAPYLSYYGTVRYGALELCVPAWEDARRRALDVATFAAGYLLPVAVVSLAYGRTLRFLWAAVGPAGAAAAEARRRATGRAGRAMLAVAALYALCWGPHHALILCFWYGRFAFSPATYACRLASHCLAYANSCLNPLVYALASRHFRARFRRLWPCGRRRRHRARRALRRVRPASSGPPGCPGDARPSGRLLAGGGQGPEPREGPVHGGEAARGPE

[2] = molecular target: T3, Probable nicotinate-nucleotide adenylyltransferase (Staphylococcus aureus (strain N315), UniProt P65502); assay type: functional, Staphylococcus aureus subsp. aureus N315;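 as to IC50 Mean: confirmatory dose-response retesting of NadD inhibitor hits first found in an ultra-high-throughput screen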
[3] = molecular target: T3, Probable nicotinate-nucleotide adenylyltransferase; assay type: functional, Staphylococcus aureus subsp. aureus N315; details: read-out: IC50_Mean
Phospholipase A2 = Phospholipase A2 (Homo sapiens, UniProt P04054); assay type: functional;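 also: confirmatory dose-response counterscreen on phospholipase A2, testing hits that came from an ultra-high-throughput screen for ATG4B inhibitors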
Cysteine protease ATG4B = molecular target: T4, Cysteine protease ATG4B (Homo sapiens, UniProt Q9Y4P1); assay type: functional;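 also: Fluorescence-based dose-response confirmation assay measuring inhibition of ATG4B activity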
T4 sequence (Q9Y4P1 whole entry): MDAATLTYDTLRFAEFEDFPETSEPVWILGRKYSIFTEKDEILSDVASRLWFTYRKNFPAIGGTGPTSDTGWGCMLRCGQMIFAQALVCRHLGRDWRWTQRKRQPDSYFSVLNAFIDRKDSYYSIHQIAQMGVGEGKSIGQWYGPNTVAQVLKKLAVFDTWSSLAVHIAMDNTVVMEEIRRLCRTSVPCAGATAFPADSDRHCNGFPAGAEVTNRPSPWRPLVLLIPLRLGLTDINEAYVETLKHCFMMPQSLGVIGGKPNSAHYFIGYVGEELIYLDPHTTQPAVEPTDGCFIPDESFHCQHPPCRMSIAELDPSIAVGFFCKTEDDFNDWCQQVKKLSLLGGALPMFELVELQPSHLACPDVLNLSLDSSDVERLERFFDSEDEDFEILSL

[4] = molecular target: T5, Sentrin-specific protease 8 (Homo sapiens, UniProt Q96LD8); assay type: functional
T5 sequence (Q96LD8 whole entry): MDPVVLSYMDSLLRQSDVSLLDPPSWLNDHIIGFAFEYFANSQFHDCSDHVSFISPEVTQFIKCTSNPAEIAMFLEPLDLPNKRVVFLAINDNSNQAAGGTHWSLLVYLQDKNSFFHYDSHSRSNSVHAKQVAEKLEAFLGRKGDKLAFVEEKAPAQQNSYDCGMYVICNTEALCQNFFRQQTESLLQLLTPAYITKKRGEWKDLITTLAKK

[5] = molecular target: T5, Sentrin-specific protease 8; assay type: functional; remark: listed apart in the source
[6] = molecular target: Heat shock protein HSP 90-alpha (Homo sapiens, UniProt P07900); assay type: functional, organism-based
[7] = Trypanosoma cruzi growth suppression in host cells – NIH3T3 host cells, beta-gal luminescence, confirmation (AID 2044); assay type: functional, cell-based;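 also: intracellular parasites grown in NIH/3T3 mouse fibroblasts as host cells; luminescent beta-galactosidase reporter signal from transgenic T. cruzi replicating inside host cells; inhibitors lower the luminescence signal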
INS1 = experiment: INS-1E survival protection against cytokine death – cell-based, luminescence, retest, dose response (AID 449756); assay type: functional; details: Rattus norvegicus;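 also: cell death triggered by IL-1 beta plus TNF-alpha plus IFN-gamma mixture; protective hits raise ATP signal compared with cytokine alone wells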
[8] = NIH3T3 cell viability loss – ATP luminescence, mouse fibroblasts, counter-screen, dose response (AID 2010); assay type: functional, cell-based;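 also: cells exposed to compound for about 90 hours before reading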
[9] = molecular target: T6, DNA repair protein RAD52 homolog (Homo sapiens, UniProt P43351); assay type: functional, biochemical
T6 sequence (P43351 whole entry): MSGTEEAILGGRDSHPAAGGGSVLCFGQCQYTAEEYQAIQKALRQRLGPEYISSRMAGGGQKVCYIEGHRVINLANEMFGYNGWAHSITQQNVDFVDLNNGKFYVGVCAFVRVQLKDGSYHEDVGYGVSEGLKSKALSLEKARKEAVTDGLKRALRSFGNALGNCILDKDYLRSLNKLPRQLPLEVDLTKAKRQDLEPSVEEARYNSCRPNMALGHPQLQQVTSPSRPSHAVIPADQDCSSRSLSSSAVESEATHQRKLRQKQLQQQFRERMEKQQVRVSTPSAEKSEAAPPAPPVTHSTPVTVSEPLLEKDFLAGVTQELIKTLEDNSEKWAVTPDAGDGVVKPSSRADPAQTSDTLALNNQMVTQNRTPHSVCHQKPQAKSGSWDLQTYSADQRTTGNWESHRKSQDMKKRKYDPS

[10] = molecular target: T7, DNA repair and recombination protein RAD54-like (Homo sapiens, UniProt Q92698); experiment: RAD54 Holliday junction migration blockers – biochemical, fluorescence, cherry-picked samples, dose series, confirmation (AID 651657); assay type: functional
T7 sequence (Q92698 whole entry): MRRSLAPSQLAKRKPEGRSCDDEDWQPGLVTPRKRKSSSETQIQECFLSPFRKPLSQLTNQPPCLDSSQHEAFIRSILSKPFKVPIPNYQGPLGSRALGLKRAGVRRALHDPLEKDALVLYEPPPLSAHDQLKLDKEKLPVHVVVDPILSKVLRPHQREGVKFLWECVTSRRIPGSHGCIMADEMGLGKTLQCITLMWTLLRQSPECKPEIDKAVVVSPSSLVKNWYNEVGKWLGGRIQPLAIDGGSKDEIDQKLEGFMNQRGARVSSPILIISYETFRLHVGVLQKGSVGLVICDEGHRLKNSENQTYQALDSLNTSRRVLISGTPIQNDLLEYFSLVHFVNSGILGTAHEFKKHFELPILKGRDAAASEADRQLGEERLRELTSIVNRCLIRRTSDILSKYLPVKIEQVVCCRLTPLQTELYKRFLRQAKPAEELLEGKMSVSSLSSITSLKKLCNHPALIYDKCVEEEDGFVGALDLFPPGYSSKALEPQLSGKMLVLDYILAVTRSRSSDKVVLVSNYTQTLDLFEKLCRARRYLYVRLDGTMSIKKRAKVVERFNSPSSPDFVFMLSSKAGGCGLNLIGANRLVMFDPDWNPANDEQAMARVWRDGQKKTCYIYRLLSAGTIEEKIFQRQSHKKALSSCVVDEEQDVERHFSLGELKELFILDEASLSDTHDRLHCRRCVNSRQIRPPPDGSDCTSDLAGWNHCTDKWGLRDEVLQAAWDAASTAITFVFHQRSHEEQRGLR

[11] = molecular target: Luciferin 4-monooxygenase (Photinus pyralis, UniProt P08659); experiment: inhibition of purified Photinus pyralis luciferase – biochemical, luminescence, dose response (AID 1891)
[12] = Luminescence Cell-Based Dose Confirmation HTS to Identify Inhibitors of Platelet Dense Granule Release. [Related pubchem assays: 1663 (Primary HTS), 1678 (Summary of Project)]; assay type: functional
[13] = HIV-1 AD8 envelope cell-cell fusion blockers – cherry-pick, dose response (AID 652062); assay type: functional, cell-based;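 also: luciferase signal from cell-cell fusion driven by HIV-1 clade B AD8 Env; potency is for inhibitors of fusion seen as a drop in luminescence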
[14] = viability loss in CEM21 cells – cell-based, CellTiter-Glo luminescence, cherry-picked, cytotoxicity control for viral fusion inhibitor project, dose response (AID 652042); assay type: functional;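 also: potency for signal decrease meaning cytotoxicity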
[15] = blockers of HIV-1 envelope-mediated cell-cell fusion – cherry-pick, dose response (AID 652057); assay type: functional, cell-based

T3 sequence (P65502 whole entry): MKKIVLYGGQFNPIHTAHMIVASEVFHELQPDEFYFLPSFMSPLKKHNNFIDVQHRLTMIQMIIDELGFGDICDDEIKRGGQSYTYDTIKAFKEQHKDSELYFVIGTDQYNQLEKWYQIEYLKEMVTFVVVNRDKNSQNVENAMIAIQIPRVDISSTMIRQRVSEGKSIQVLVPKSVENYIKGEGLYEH
Chain of Phospholipase A2 (P04054 whole entry): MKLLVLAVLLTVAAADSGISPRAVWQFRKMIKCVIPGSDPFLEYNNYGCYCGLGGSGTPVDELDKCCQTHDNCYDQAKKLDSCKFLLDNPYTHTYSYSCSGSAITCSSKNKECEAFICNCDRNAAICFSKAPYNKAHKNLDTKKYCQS
Chain of Luciferin 4-monooxygenase (P08659 whole entry): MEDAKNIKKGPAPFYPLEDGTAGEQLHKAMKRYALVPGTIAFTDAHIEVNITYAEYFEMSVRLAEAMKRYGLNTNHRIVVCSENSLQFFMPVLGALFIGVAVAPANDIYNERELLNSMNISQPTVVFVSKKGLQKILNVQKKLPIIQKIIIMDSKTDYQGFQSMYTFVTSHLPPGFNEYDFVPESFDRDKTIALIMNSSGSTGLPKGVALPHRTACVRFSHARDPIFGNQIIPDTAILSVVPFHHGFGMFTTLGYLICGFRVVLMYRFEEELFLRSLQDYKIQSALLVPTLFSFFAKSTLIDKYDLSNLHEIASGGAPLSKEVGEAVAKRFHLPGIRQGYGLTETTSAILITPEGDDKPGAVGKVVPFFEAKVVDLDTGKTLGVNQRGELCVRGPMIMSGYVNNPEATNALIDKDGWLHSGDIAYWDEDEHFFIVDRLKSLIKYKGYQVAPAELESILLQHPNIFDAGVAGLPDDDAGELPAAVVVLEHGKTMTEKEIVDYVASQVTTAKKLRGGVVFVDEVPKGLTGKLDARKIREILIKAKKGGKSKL

With `Cn1c(N)c(C(=O)COC(=O)c2cnc(Cl)c(Cl)c2)c(=O)n(C)c1=O` the IC50 [1] was 10.1 µM (active), the EC50 (cells) was > 29.9 µM (inactive) and the IC50 (Galanin receptor type 3) was > 29.9 µM (inactive).
With `CCOC(=O)c1c(-c2ccccc2Cl)csc1NC(=O)CSc1nc(C)cc(=O)[nH]1` the IC50 [2] was 11.6 µM (active) and the IC50 [3] was 28.7 µM (active).
In the case of `O=C(O)Cc1sc(NC2CCCCC2)nc1-c1ccc(Cl)cc1`, the IC50 (Phospholipase A2) is reported as 8.63 µM (active) and the IC50 (Cysteine protease ATG4B) is reported as 21 µM (inactive).
For `O=C(c1ncn(Cc2ccccc2)c1C(=O)N1CCc2ccccc2C1)N1CCc2ccccc2C1`, the IC50 [4] was > 100 µM (inactive) and the IC50 [5] was 16 µM (active).
For `Cc1ccc(NC(=S)N/N=C/c2ccc([N+](=O)[O-])s2)cc1`, the AC50 [6] was 3.4 µM (active), the IC50 [4] was 18.4 µM (active) and the EC50 [7] was 1.34 µM (active). For the same compound, the AC50 (INS1) was 6.72 µM (active), the EC50 [8] was 7.86 µM (active) and the IC50 [5] was 21.5 µM (active).
In the case of `COc1ccc(-c2nn(C)c3sc(C(=O)NCCN(C)C)cc23)cc1OC`, the AC50 [9] is reported as 2.35 µM (active) and the AC50 [10] is reported as 6.36 µM (active).
For `CC1CC(C)CN(C(=O)C2CCN(S(=O)(=O)c3ccc4c(c3)CC(C)N4C(=O)C3CC3)CC2)C1` (stereo unspecified), the IC50 (Phospholipase A2) was 7.55 µM (active) and the IC50 (Cysteine protease ATG4B) was 14.5 µM (active).
With `COc1cccc(C2c3c(-c4cc(Cl)c(C)cc4O)n[nH]c3C(=O)N2Cc2cccnc2)c1` (stereo unspecified) the IC50 [2] was 21.5 µM (active), the EC50 [11] was > 112 µM (not active) and the IC50 [3] was 46 µM (active). The EC50 [12] was 41.2 µM (active).
For `CN(C)c1ccc2c(c1)[C@@H]1C[C@H](CC(=O)NCc3ccc(-c4ccccc4)cc3)O[C@@H](CO)[C@@H]1O2`, the AC50 [13] was 2.51 µM (active), the AC50 [14] was 40.9 µM (active) and the AC50 [15] was < 0.26 µM (active).
